Reference: patent US6858641B2, “Substituted indolinones” (Boehringer Ingelheim Pharma KG, priority 2001, dated 2005)

These compounds were tested on Human umbilical endothelial cells (HUVEC) (assay: Inhibition of VEGF165-stimulated HUVEC proliferation (3H-thymidine incorporation)). Conditions: HUVEC stimulated with 5 ng/ml VEGF165 and 10 μg/ml heparin; 76 hours incubation then 16 hours 3H-thymidine; concentration inhibiting proliferation by 50%.
Type: cell-based
Procedure: Human umbilical endothelial cells (HUVEC) were cultivated in IMDM (Gibco BRL), supplemented with 10% foetal calf serum (FBS) (Sigma), 50 μM of β-mercaptoethanol (Fluka), standard antibiotics, 15 μg/ml of endothelial cell growth factor (ECGS, Collaborative Biomedical Products) and 100 μg/ml of heparin (Sigma) on gelatine-coated culture dishes (0.2% gelatine, Sigma) at 37° C., under 5% CO2 in a water-saturated atmosphere.
In order to investigate the inhibitory activity of the compounds according to the invention the cells were “starved” for 16 hours, i.e. kept in culture medium without growth factors (ECGS+heparin). The cells were detached from the culture dishes using trypsin/EDTA and washed once in serum-containing medium. Then they were seeded out in amounts of 2.5×10^3 cells per well.
The proliferation of the cells was stimulated with 5 ng/ml of VEGF165 (vascular endothelial growth factor; H. Weich, GBF Braunschweig) and 10 μg/ml of heparin. As a control, 6 wells in each dish were not stimulated.
The compounds according to the invention were dissolved in 100% dimethylsulphoxide and added to the cultures in various dilutions as triple measurements, the maximum dimethylsulphoxide concentration being 0.3%.
The cells were incubated for 76 hours at 37° C., then for a further 16 hours ^3H-thymidine (0.1 μCi/well, Amersham) was added in order to determine the DNA synthesis. Then the radioactively labelled cells were immobilised on filter mats and the radioactivity incorporated was measured in a β-counter. In order to determine the inhibitory activity of the compounds according to the invention the mean value of the non-stimulated cells was subtracted from the mean value of the factor-stimulated cells (in the presence or absence of the compounds according to the invention).
The relative cell proliferation was calculated as a percentage of the control (HUVEC without inhibitor) and the concentration of active substance which inhibits the proliferation of the cells by 50% (IC50) was determined.
In the case of “methyl 3-(Z)-[1-{4-[(4-(2-hydroxy-ethyl)-piperazin-1-yl)-carbonyl]-phenylamino}1-phenyl-methylidene]-2-indolinone-6-carboxylate [(i)]”, the IC50 is reported as 20 nM.
“methyl 3-(Z)-[1-{4-[(4-methyl-piperazin-1-yl)-carbonyl]-phenylamino}-1-phenyl-methylidene]-2-indolinone-6-carboxylate [(c)]” gave an IC50 of 30 nM.
For COC(=O)c1ccc2c(c1)NC(=O)/C2=C(\Nc1ccc(C(=O)N(C)CCN(C)C)cc1)c1ccccc1 [(a), methyl 3-(Z)-[1-{4-[N-(2-dimethylamino-ethyl)-N-methyl-carbamoyl]-phenylamino}-1-phenyl-methylidene]-2-indolinone-6-carboxylate], the IC50 was 40 nM.
In the case of “methyl 3-(Z)-[1-{4-[(4-ethyl-piperazin-1-yl)-carbonyl]-phenylamino}-1-phenyl-methylidene]-2-indolinone-6-carboxylate [(h)]”, the IC50 is reported as 20 nM.
Compound COC(=O)c1ccc2c(c1)NC(=O)/C2=C(\Nc1ccc(C(=O)N(C)CCCN(C)C)cc1)c1ccccc1 [(b), methyl 3-(Z)-[1-{4-[N-(3-dimethylamino-propyl)-N-methyl-carbamoyl]-phenylamino}-1-phenyl-methylidene]-2-indolinone-6-carboxylate] has an IC50 of 20 nM.
For “methyl 3-(Z)-[1-{4-[(4-hydroxy-piperidin-1-yl)-carbonyl]-phenylamino}-1-phenyl-methylidene]-2-indolinone-6-carboxylate [(d)]”, the IC50 was 50 nM.
